{"source": "patent US20060233873A1", "about": "“Dispersion of taste masked crystals or granules of active substances, chewable soft capsules filled with said dispersion, and process for preparing same” (priority 2003, published 2006)", "experiment": "Solubility of the active in lipophilic vehicles at 25° C., HPLC method", "settings": "oil or lipid", "description": "In this example, lipophilic vehicles with different solubilizing powers for dextromethorphan HBr were tested."}
{"smiles": "COc1ccc2c(c1)[C@]13CCCC[C@@H]1[C@H](C2)N(C)CC3", "note": "[dextromethorphan HBr]", "values": [{"measurement": "solubility", "setting": "in Dimethicone 100 silicone oil", "result": "< 1", "unit": "µg/mL"}, {"measurement": "solubility", "setting": "in medium chain triglycerides Mygliol 812N", "result": 120, "unit": "µg/mL"}, {"measurement": "solubility", "setting": "in paraffin oil", "result": "~1", "unit": "µg/mL"}, {"measurement": "solubility", "setting": "in soya oil", "result": "~6", "unit": "µg/mL"}]}
